Where two headings read alike, the source gives them in different places.
How the values were obtained:
[1] = tested on: lectin pathway (MBL) in human serum; assay: Inhibition of activity of lectin pathway (MBL) in human serum (WIESLAB Complement System MBL Pathway kit); format: biochemical; conditions: 1% human serum
Method: The inhibition of the activity of the lectin pathway (MBL) in human serum by compounds was detected using a WIESLAB® Complement System MBL Pathway kit (SVAR, COMPLMP320). Test compounds were each serially diluted in a buffer (Diluent MP), and 1% human serum was incubated with the diluted compound solution for 15 min at room temperature. 100 μL of the mixture was added to a microplate and incubated at 37° C. for 60 min. The liquid in the wells was discarded, and the microplate was washed three times with a washing solution. A Conjugate antibody solution was added at 100 μL/well, and the resulting mixture was incubated for 30 min at 25° C. The liquid in the wells was discarded, and the microplate was washed three times with a washing solution; a substrate solution was added at 100 μL/well, and the resulting mixture was incubated for 30 min at 25° C.; the terminator was added at 50 μL/well, and the absorbance at 405 nm was detected within 30 min by using a microplate reader.

[2] = In vivo pharmacokinetic study in SD rats; conditions: clear
Method: After adaptive feeding, the SPF SD rats were each subjected to a single administration of 1 mg/kg or 3 mg/kg of the compound of the present disclosure intragastrically or by tail vein bolus injection. Plasma was collected at specific time points after administration, and the concentration of the compound in plasma was detected by LC-MS/MS (AB Sciex Qtrap 4500).

[3] = Sprague-Dawley (SD), rat, plasma, 1 mg/kg, IV, not fasting
[4] = Sprague-Dawley (SD), rat, plasma, 1 mg/kg, IV, not fasting, read-out: Cmax
[5] = Sprague-Dawley (SD), rat, plasma, 1 mg/kg, PO, fasting
[6] = Sprague-Dawley (SD), rat, plasma, 1 mg/kg, PO, fasting, read-out: Cmax

Row | Compound | IC50 [1] [nM] | AUC(0-t) [2, 3] [ng·h/mL] | half-life [2, 3] [h] | Cmax [2, 4] [ng/mL] | AUC(0-t) [2, 5] [ng·h/mL] | half-life [2, 5] [h] | Cmax [2, 6] [ng/mL] | also measured
1 | C[C@H](NC(=O)C1C=C(c2ccc(F)cc2)CCN1)C(=O)N[C@@H]1CCc2nc(N)ccc21 (single isomer, unassigned) [Compound L064-IS-02] | 7.57 | 15600 ± 5150 | 4.18 ± 1.02 | 16000 ± 2070 | 2630 ± 245 | 5.57 ± 1.46 | 875 ± 155 | –
2 | C[C@H](NC(=O)[C@@H]1C=C(c2ccc(Cl)cc2)CCN1)C(=O)N[C@@H]1CCc2nc(N)ccc21 (single isomer, unassigned) [Compound L066-IS-02] | 9.52 | 17100 ± 4640 | 4.51 ± 1.29 | 15900 ± 1070 | 3240 ± 233 | 4.93 ± 0.51 | 1140 ± 164 | –
3 | C[C@H](NC(=O)[C@@H]1C=C(c2ccc(F)c(F)c2)CCN1)C(=O)N[C@@H]1CCc2nc(N)ccc21 (single isomer, unassigned) [Compound L069-IS-02] | 17.4 | 20000 ± 3840 | 3.39 ± 0.17 | 15700 ± 1130 | 6930 ± 968 | 3.37 | 1190 ± 162 | –
4 | C[C@H](NC(=O)[C@@H]1C=C(c2ccc(F)cc2F)CCN1)C(=O)N[C@@H]1CCc2nc(N)ccc21 (single isomer, unassigned) [Compound L076-IS-02] | 11.6 | 25900 ± 556 | 5.88 ± 0.27 | 22500 ± 1030 | 6970 ± 1210 | 4.29 ± 0.28 | 1350 ± 423 | –
5 | C[C@H](NC(=O)[C@H]1C[C@H](Cc2ccc(Cl)cc2)CN1)C(=O)NC1CCc2nc(N)ccc21 (stereo partly drawn) [Compound L003, (2R,4S)—N-((2S)-1-((2-amino-6,7-dihydro-5H-cyclopenta[b]pyridin-5-yl)amino)-1-oxopropan-2-yl)-4-(4-chlorobenzyl) pyrrolidine-2-carboxamide] | 5.17 | – | – | – | – | – | – | AUClast ([2]; 1 mg/kg, IV, not fasting): 95060 ± 770 ng·h/mL; Cmax ([2]; 1 mg/kg, IV, not fasting): 25400 ± 1940 ng/mL; T1/2 ([2]; 1 mg/kg, IV, not fasting): 5.84 ± 0.55 h; AUClast ([2]; 1 mg/kg, PO, fasting): 11167 ± 1986 ng·h/mL; Cmax ([2]; 1 mg/kg, PO, fasting): 1777 ± 394 ng/mL; T1/2 ([2]; 1 mg/kg, PO, fasting): 5.89 h
6 | C[C@H](NC(=O)[C@H]1C[C@H](Cc2ccc(F)c(Cl)c2)CN1)C(=O)NC1CCc2nc(N)ccc21 (stereo partly drawn) [Compound L012, (2R,4S)—N-((2S)-1-((2-amino-6,7-dihydro-5H-cyclopenta[b]pyridin-5-yl)amino)-1-oxopropan-2-yl)-4-(3-chloro-4-fluorobenzyl) pyrrolidine-2-carboxamide] | 4.06 | – | – | – | – | – | – | AUClast ([2]; 1 mg/kg, IV, not fasting): 97054 ± 1914 ng·h/mL; Cmax ([2]; 1 mg/kg, IV, not fasting): 26933 ± 1167 ng/mL; T1/2 ([2]; 1 mg/kg, IV, not fasting): 12.0 ± 3.72 h; AUClast ([2]; 1 mg/kg, PO, fasting): 11618 ± 919 ng·h/mL; Cmax ([2]; 1 mg/kg, PO, fasting): 1777 ± 98.2 ng/mL; T1/2 ([2]; 1 mg/kg, PO, fasting): 12.7 h
7 | C[C@H](NC(=O)[C@H]1C[C@H](Cc2cccc(Cl)c2)CN1)C(=O)NC1CCc2nc(N)ccc21 (stereo partly drawn) [Compound L014, (2R,4S)—N-((2S)-1-((2-amino-6,7-dihydro-5H-cyclopenta[b]pyridin-5-yl)amino)-1-oxopropan-2-yl)-4-(3-chlorobenzyl) pyrrolidine-2-carboxamide] | 2.71 | – | – | – | – | – | – | AUClast ([2]; 1 mg/kg, IV, not fasting): 89916 ± 4999 ng·h/mL; Cmax ([2]; 1 mg/kg, IV, not fasting): 24633 ± 167 ng/mL; T1/2 ([2]; 1 mg/kg, IV, not fasting): 7.81 ± 1.16 h; AUClast ([2]; 1 mg/kg, PO, fasting): 13180 ± 3323 ng·h/mL; Cmax ([2]; 1 mg/kg, PO, fasting): 1967 ± 568 ng/mL; T1/2 ([2]; 1 mg/kg, PO, fasting): 12.5 h
8 | C[C@H](NC(=O)[C@H]1CC(C(F)(F)c2ccc(F)cc2)CN1)C(=O)N[C@@H]1CCc2nc(N)ccc21 (stereo partly drawn) [Compound L050, (2R)—N—((S)-1-(((R)-2-amino-6,7-dihydro-5H-cyclopenta[b]pyridin-5-yl)amino)-1-oxopropan-2-yl)-4-(difluoro (4-fluorophenyl)methyl) pyrrolidine-2-carboxamide] | 2.64 | – | – | – | – | – | – | AUClast ([2]; 1 mg/kg, IV, not fasting): 16723 ± 860 ng·h/mL; Cmax ([2]; 1 mg/kg, IV, not fasting): 27167 ± 1299 ng/mL; T1/2 ([2]; 1 mg/kg, IV, not fasting): 2.13 ± 0.25 h; AUClast ([2]; 1 mg/kg, PO, fasting): 3638 ± 335 ng·h/mL; Cmax ([2]; 1 mg/kg, PO, fasting): 1373 ± 162 ng/mL; T1/2 ([2]; 1 mg/kg, PO, fasting): 2.21 ± 0.27 h
9 | Cc1cc(F)ccc1C1=C[C@@H](C(=O)N[C@@H](C)C(=O)N[C@@H]2CCc3nc(N)ccc32)NCC1 [Compound L074-IS-02, (S)-N-((S)-1-(((R)-2-amino-6,7-dihydro-5H-cyclopenta[b]pyridin-5-yl)amino)-1-oxopropan-2-yl)-4-(4-fluoro-2-methylphenyl)-1,2,5,6-tetrahydropyridine-2-carboxamide] | 2.79 | – | – | – | – | – | – | –
10 | C[C@H](NC(=O)[C@@H]1C=C(c2ccc(F)cc2Cl)CCN1)C(=O)N[C@@H]1CCc2nc(N)ccc21 [Compound L075-IS-02, (S)-N-((S)-1-(((R)-2-amino-6,7-dihydro-5H-cyclopenta[b]pyridin-5-yl)amino)-1-oxopropan-2-yl)-4-(2-chloro-4-fluorophenyl)-1,2,5,6-tetrahydropyridine-2-carboxamide] | 4.89 | – | – | – | – | – | – | –
11 | C[C@H](NC(=O)[C@@H]1C=C(c2ccc(F)c(C(F)F)c2)CCN1)C(=O)N[C@@H]1CCc2nc(N)ccc21 [Compound L078-IS-02, (S)—N—((S)-1-(((R)-2-amino-6,7-dihydro-5H-cyclopenta[b]pyridin-5-yl)amino)-1-oxopropan-2-yl)-4-(3-(difluoromethyl)-4-fluorophenyl)-1,2,5,6-tetrahydropyridine-2-carboxamide] | 16.3 | – | – | – | – | – | – | –
12 | C[C@H](NC(=O)[C@@H]1C=C(c2ccc(F)cc2CF)CCN1)C(=O)N[C@@H]1CCc2nc(N)ccc21 [Compound L079-IS-02, (S)—N—((S)-1-(((R)-2-amino-6,7-dihydro-5H-cyclopenta[b]pyridin-5-yl)amino)-1-oxopropan-2-yl)-4-(4-fluoro-2-(fluoromethyl)phenyl)-1,2,5,6-tetrahydropyridine-2-carboxamide] | 2.9 | – | – | – | – | – | – | –
13 | C[C@H](NC(=O)[C@@H]1C=C(c2ccc(F)cc2C(F)F)CCN1)C(=O)N[C@@H]1CCc2nc(N)ccc21 [Compound L080-IS-02, (S)—N—((S)-1-(((R)-2-amino-6,7-dihydro-5H-cyclopenta[b]pyridin-5-yl)amino)-1-oxopropan-2-yl)-4-(2-(difluoromethyl)-4-fluorophenyl)-1,2,5,6-tetrahydropyridine-2-carboxamide] | 2.87 | – | – | – | – | – | – | –
14 | C[C@H](NC(=O)[C@@H]1C=C(c2cccc(Cl)c2)CCN1)C(=O)N[C@@H]1CCc2nc(N)ccc21 [Compound L081-IS-02, (S)—N—((S)-1-(((R)-2-amino-6,7-dihydro-5H-cyclopenta[b]pyridin-5-yl)amino)-1-oxopropan-2-yl)-4-(3-chlorophenyl)-1,2,5,6-tetrahydropyridine-2-carboxamide] | 7.41 | – | – | – | – | – | – | –
15 | C[C@H](NC(=O)[C@H]1C=C(c2ccccc2F)CCN1)C(=O)N[C@@H]1CCc2nc(N)ccc21 [Compound L082, (R)—N—((S)-1-(((R)-2-amino-6,7-dihydro-5H-cyclopenta[b]pyridin-5-yl)amino)-1-oxopropan-2-yl)-4-(2-fluorophenyl)-1,2,5,6-tetrahydropyridine-2-carboxamide] | 8.85 | 24700 ± 1030 | 3.21 ± 0.19 | 18600 ± 1960 | 6110 ± 1210 | 2.85 ± 0.05 | 1430 ± 283 | –
16 | C[C@H](NC(=O)[C@H]1C=C(c2cccc(F)c2)CCN1)C(=O)N[C@@H]1CCc2nc(N)ccc21 [Compound L083, (R)—N—((S)-1-(((R)-2-amino-6,7-dihydro-5H-cyclopenta[b]pyridin-5-yl)amino)-1-oxopropan-2-yl)-4-(3-fluorophenyl)-1,2,5,6-tetrahydropyridine-2-carboxamide] | 10.6 | 16400 ± 936 | 2.71 ± 0.23 | 18000 ± 850 | 3360 ± 778 | 2.97 ± 0.07 | 1090 ± 295 | –
17 | C[C@H](NC(=O)[C@H]1C=C(c2cccc(F)c2F)CCN1)C(=O)N[C@@H]1CCc2nc(N)ccc21 [Compound L084, (R)—N—((S)-1-(((R)-2-amino-6,7-dihydro-5H-cyclopenta[b]pyridin-5-yl)amino)-1-oxopropan-2-yl)-4-(2,3-difluorophenyl)-1,2,5,6-tetrahydropyridine-2-carboxamide] | 13.3 | 26000 ± 1480 | 3.68 ± 0.22 | 18200 ± 929 | 6880 ± 1430 | 3.09 ± 0.05 | 2140 ± 664 | –
18 | Nc1ccc2c(n1)CC[C@H]2NC(=O)[C@@H]1C[C@@H]2C[C@@H]2N1C(=O)[C@H]1C[C@H](Cc2ccc(F)cc2)CN1 [Compound L104-IS-02, (1S,3S,5S)—N—((R)-2-amino-6,7-dihydro-5H-cyclopenta [b]pyridin-5-yl)-2-((2R,4S)-4-(4-fluorobenzyl)pyrrolidine-2-carbonyl)-2-azabicyclo[3.1.0]hexane-3-carboxamide] | 0.97 | – | – | – | – | – | – | –
19 | (2R)—N-((2S)-1-((2-amino-6,7-dihydro-5H-cyclopenta[b]pyridin-5-yl)amino)-1-oxopropan-2-yl)-4-phenyl-1,2,3,6-tetrahydropyridine-2-carboxamide [Compound L023-IS-02] | 3.36 | – | – | – | – | – | – | AUClast ([2]; 1 mg/kg, IV, not fasting): 21567 ± 2996 ng·h/mL; Cmax ([2]; 1 mg/kg, IV, not fasting): 17400 ± 1026 ng/mL; T1/2 ([2]; 1 mg/kg, IV, not fasting): 3.93 ± 0.18 h; AUClast ([2]; 3 mg/kg, PO, fasting): 17996 ± 2579 ng·h/mL; Cmax ([2]; 3 mg/kg, PO, fasting): 4340 ± 162 ng/mL; T1/2 ([2]; 3 mg/kg, PO, fasting): 4.20 ± 0.54 h

Source: patent US20250171414A1, “COMPOUND SERVING AS MASP-2 INHIBITOR, PHARMACEUTICAL COMPOSITION, PREPARATION METHOD THEREFOR, AND USE THEREOF” (WUHAN CREATERNA SCIENCE AND TECHNOLOGY CO., LTD., priority 2022, published 2025)
